From BindingDB's records for doi:10.1016/s0960-894x(99)00042-6 (1999)

Assay: Inhibitory activity against beta-glucosidase of sweet almond

Ki: 2100 nM
Structure (SMILES): C[C@@H]1NC[C@@H](CO)[C@@H](O)[C@@H]1O [5-Hydroxymethyl-2-methyl-piperidine-3,4-diol]
